Measured values published in patent publication US12521440B2, “Degradation of bruton's tyrosine kinase (BTK) by conjugation of BTK inhibitors with E3 ligase ligand and methods of use” (BeOne Medicines I GmbH, priority 2021, dated 2026).

What was measured:
HEK-293 cells = assay: HEK-293 cytotoxicity detection (CellTiter-Glo); type: cell-based; conditions: Homo sapiens, 72 h incubation, read-out: HEK293
Description: (§1) The IC50 (DC50) value of a compound can be obtained by fitting the following equation Y=Bottom+(TOP−Bottom)/(1+((IC50/X)^hillslope)) wherein, X and Y are known values, and IC50, Hillslope, Top and Bottom are the parameters obtained by fitting with software. Y is the inhibition percentage (calculated from the equation), X is the concentration of the compound; IC50 is the concentration of the compound when the 50% inhibition is reached. The smaller the IC50 value is, the stronger the inhibitory ability of the compound is. Vice versa, the higher the IC50 value is, the weaker the ability the inhibitory ability of the compound is; Hillslope represents the slope of the fitted curve, generally around 1*; Bottom represents the minimum value of the curve obtained by data fitting, which is generally 0%±20%; Top represents the maximum value of the curve obtained by data fitting, which is generally 100%±20%. The experimental data were fitted by calculating and analyzing with Dotmatics data analysis software. HEK-293 Cell Treatment
HEK-293 cells were treated with compounds diluted in 0.2% DMSO, dilution was done according to the following protocol: (1) making 500×stock solution in DMSO from 5 mM by 4-fold dilution, total 8 doses were included; (2) making 2×solution in cell culture medium by transferring 0.5 ul 500×stock solution into 125 ul medium; (3) adding 50 ul of 2×solution to cells for incubation of 72 h.
25 μl of the CellTiter-Glo® Reagent [(Promega)—Cat No. G7572] was added to each well in the 96-well plate. The contents were mixed for 2 minutes on an orbital shaker to induce cell lysis. The plate was then allowed to incubate at room temperature for 10 minutes to stabilize luminescent signal. Luminescence was recorded on BMG PheraStar with luminescence protocol.
as §1, with “IC50” for “IC50 (DC50)”, “Wherein,” for “wherein,”, “software.” for “software. HEK-293 Cell Treatment”

BTK = molecular target: T1, BTK (Homo sapiens, UniProt Q06187); assay: BTK degradation in TMD-8 cells (HTRF assay); type: cell-based; conditions: 6 h treatment, HTRF BTK degradation IC50 (DC50)
T1 construct: endogenous in cells; host or cells: TMD-8 cells
T1 sequence (Q06187 whole entry): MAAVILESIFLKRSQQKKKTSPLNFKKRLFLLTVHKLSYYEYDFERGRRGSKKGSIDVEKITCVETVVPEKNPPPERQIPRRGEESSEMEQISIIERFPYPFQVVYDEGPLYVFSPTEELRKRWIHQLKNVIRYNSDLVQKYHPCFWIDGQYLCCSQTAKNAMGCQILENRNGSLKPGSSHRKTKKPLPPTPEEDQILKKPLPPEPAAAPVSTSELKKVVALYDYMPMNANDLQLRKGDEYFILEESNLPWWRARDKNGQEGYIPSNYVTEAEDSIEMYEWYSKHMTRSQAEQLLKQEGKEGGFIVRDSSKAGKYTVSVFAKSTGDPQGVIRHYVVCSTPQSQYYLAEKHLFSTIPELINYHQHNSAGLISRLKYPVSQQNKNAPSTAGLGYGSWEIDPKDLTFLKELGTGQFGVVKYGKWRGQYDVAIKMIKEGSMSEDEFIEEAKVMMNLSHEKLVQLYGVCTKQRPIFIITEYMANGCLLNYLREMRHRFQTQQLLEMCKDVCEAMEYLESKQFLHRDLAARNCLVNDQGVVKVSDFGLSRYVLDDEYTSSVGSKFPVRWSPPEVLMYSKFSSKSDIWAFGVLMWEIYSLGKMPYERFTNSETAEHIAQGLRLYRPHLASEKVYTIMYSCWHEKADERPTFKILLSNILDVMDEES
Procedure: TMD-8 cells were treated with compounds diluted in 0.2% DMSO, dilution was done according to the following protocol: (1) making 500×stock solution in DMSO from 1 mM by 6-fold dilution, total 8 doses were included; (2) making 2×solution in cell culture medium by transferring 0.5 μl 500×stock solution into 125 μl medium; (3) adding 15 μl of 2×solution to cells for incubation of 6 h.
After 6 h treatment, 10 μl 4×lysis buffer was added to each well; the plate was sealed and incubated for 30 min at room temperature on a plate shaker; Once the cells was lysed, 16 μL of cell lysate were transferred to a PE 384-well HTRF detection plate; 4 μL of pre-mixed HTRF antibodies were added to each well; the plate was covered with a plate sealer, and then spinned at 1000 rpm for 1 min, then incubated overnight at room temperature; the results were read on BMG PheraStar with HTRF protocol (337 nm-665 nm-620 nm).
as §1

SMILES	DC50 (BTK) [nM]	IC50 (HEK-293 cells) [nM]
Cc1cc(-c2cc(Nc3ccc(N4CCN(CCC5CCN(c6ccc(C7CCC(=O)NC7=O)c(F)c6)CC5)CC4)cc3)ncn2)c(F)cc1[C@@H](C)NC(=O)c1nc(C(C)(C)C)no1 (stereo partly drawn) [Example 4, 3-(tert-butyl)-N-((1R)-1-(4-(6-((4-(4-(2-(1-(4-(2,6-dioxopiperidin-3-yl)-3-fluorophenyl)piperidin-4-yl)ethyl)piperazin-1-yl)phenyl)amino)pyrimidin-4-yl)-5-fluoro-2-methylphenyl)ethyl)-1,2,4-oxadiazole-5-carboxamide]	16.9	> 10000
Cc1cc(-c2cc(Nc3cccc(N4CCN(CC5CCN(c6ccc(N7CCC(=O)NC7=O)cc6)CC5)CC4)c3)ncn2)c(F)cc1[C@@H](C)NC(=O)c1nc(C(C)(C)C)no1 [Example 5, (R)-3-(tert-butyl)-N-(1-(4-(6-((3-(4-((1-(4-(2,4-dioxotetrahydropyrimidin-1(2H)-yl)phenyl)piperidin-4-yl)methyl)piperazin-1-yl)phenyl)amino)pyrimidin-4-yl)-5-fluoro-2-methylphenyl)ethyl)-1,2,4-oxadiazole-5-carboxamide]		> 10000
Cc1cc(-c2cc(Nc3cccc(N4CCN(C5CC(c6ccc(NC7CCC(=O)NC7=O)cc6)C5)CC4)c3)ncn2)c(F)cc1[C@@H](C)NC(=O)c1nc(C(C)(C)C)no1 (stereo partly drawn) [Example 6, 3-(tert-butyl)-N-((1R)-1-(4-(6-((3-(4-(3-(4-((2,6-dioxopiperidin-3-yl)amino)phenyl)cyclobutyl)piperazin-1-yl)phenyl)amino)pyrimidin-4-yl)-5-fluoro-2-methylphenyl)ethyl)-1,2,4-oxadiazole-5-carboxamide]	48.1	> 10000
Cc1cc(-c2cc(Nc3ccc(N4CCN(CC5CCN(c6ccc(N7CCC(=O)NC7=O)cc6)CC5)CC4)nc3)ncn2)ccc1[C@@H](C)NC(=O)c1nc(C2(C)CC2)no1 [Example 10, (R)—N-(1-(4-(6-((6-(4-((1-(4-(2,4-dioxotetrahydropyrimidin-1(2H)-yl)phenyl)piperidin-4-yl)methyl)piperazin-1-yl)pyridin-3-yl)amino)pyrimidin-4-yl)-2-methylphenyl)ethyl)-3-(1-methylcyclopropyl)-1,2,4-oxadiazole-5-carboxamide]	89.5	> 10000
Cc1cc(-c2cc(Nc3ccc(N4CCN(C5CN(c6ccc(N7CCC(=O)NC7=O)cc6)C5)CC4)cn3)ncn2)ccc1[C@@H](C)NC(=O)c1nc(C2(C)CC2)no1 [Example 12, (R)—N-(1-(4-(6-((5-(4-(1-(4-(2,4-dioxotetrahydropyrimidin-1(2H)-yl)phenyl)azetidin-3-yl)piperazin-1-yl)pyridin-2-yl)amino)pyrimidin-4-yl)-2-methylphenyl)ethyl)-3-(1-methylcyclopropyl)-1,2,4-oxadiazole-5-carboxamide]	1.28	> 10000
Cc1cc(-c2cc(Nc3ccc(N4CCN(CCc5cc(F)c([C@H]6CCC(=O)NC6=O)c(F)c5)CC4)cn3)ncn2)ccc1[C@@H](C)NC(=O)c1nc(C(C)(C)C)no1 [Example 46, 3-(tert-butyl)-N—((R)-1-(4-(6-((5-(4-(4-((R)-2,6-dioxopiperidin-3-yl)-3,5-difluorophenethyl)piperazin-1-yl)pyridin-2-yl)amino)pyrimidin-4-yl)-2-methylphenyl)ethyl)-1,2,4-oxadiazole-5-carboxamide]		> 10000

Continued, in another order:

DC50 (BTK) [nM]	SMILES	IC50 (HEK-293 cells) [nM]
21.3	Cc1cc(-c2cc(Nc3ccc(N4CCN(CC5CCN(c6ccc(N7CCC(=O)NC7=O)cc6)CC5)CC4)cc3)ncn2)c(F)cc1[C@@H](C)NC(=O)c1nc(C(C)(C)C)no1 [Example 1, (R)-3-(tert-butyl)-N-(1-(4-(6-((4-(4-((1-(4-(2,4-dioxotetrahydropyrimidin-1(2H)-yl)phenyl)piperidin-4-yl)methyl)piperazin-1-yl)phenyl)amino)pyrimidin-4-yl)-5-fluoro-2-methylphenyl)ethyl)-1,2,4-oxadiazole-5-carboxamide]	> 10000
236	Cc1cc(-c2cc(Nc3ccc(N4CCN(CC5CCN(c6ccc(N7CCC(=O)NC7=O)c(F)c6)CC5)CC4)cc3)ncn2)c(F)cc1[C@@H](C)NC(=O)c1nc(C(C)(C)C)no1 [Example 2, (R)-3-(tert-butyl)-N-(1-(4-(6-((4-(4-((1-(4-(2,4-dioxotetrahydropyrimidin-1(2H)-yl)-3-fluorophenyl)piperidin-4-yl)methyl)piperazin-1-yl)phenyl)amino)pyrimidin-4-yl)-5-fluoro-2-methylphenyl)ethyl)-1,2,4-oxadiazole-5-carboxamide]	> 10000
104	Cc1cc(-c2cc(Nc3ccc(N4CCN(CC5CCN(c6ccc(N7CCC(=O)NC7=O)cc6F)CC5)CC4)cc3)ncn2)c(F)cc1[C@@H](C)NC(=O)c1nc(C(C)(C)C)no1 [Example 3, (R)-3-(tert-butyl)-N-(1-(4-(6-((4-(4-((1-(4-(2,4-dioxotetrahydropyrimidin-1(2H)-yl)-2-fluorophenyl)piperidin-4-yl)methyl)piperazin-1-yl)phenyl)amino)pyrimidin-4-yl)-5-fluoro-2-methylphenyl)ethyl)-1,2,4-oxadiazole-5-carboxamide]	> 10000
12.8	Cc1cc(-c2cc(Nc3ccc(N4CCN(CC5CCN(c6ccc(N7CCC(=O)NC7=O)cc6)CC5)CC4)cc3)ncn2)ccc1[C@@H](C)NC(=O)c1nc(C(C)(C)C)no1 [Example 7, (R)-3-(tert-butyl)-N-(1-(4-(6-((4-(4-((1-(4-(2,4-dioxotetrahydropyrimidin-1(2H)-yl)phenyl)piperidin-4-yl)methyl)piperazin-1-yl)phenyl)amino)pyrimidin-4-yl)-2-methylphenyl)ethyl)-1,2,4-oxadiazole-5-carboxamide]	> 10000
1.48	Cc1cc(-c2cc(Nc3ccc(N4CCN(CC5CCN(c6ccc(N7CCC(=O)NC7=O)cc6)CC5)CC4)cn3)ncn2)c(F)cc1[C@@H](C)NC(=O)c1nc(C(C)(C)C)no1 [Example 8, (R)-3-(tert-butyl)-N-(1-(4-(6-((5-(4-((1-(4-(2,4-dioxotetrahydropyrimidin-1(2H)-yl)phenyl)piperidin-4-yl)methyl)piperazin-1-yl)pyridin-2-yl)amino)pyrimidin-4-yl)-5-fluoro-2-methylphenyl)ethyl)-1,2,4-oxadiazole-5-carboxamide]	> 10000
138	Cc1c([C@@H](C)NC(=O)c2nc(C(C)(C)C)no2)ccc(-c2cc(Nc3ccc(N4CCN(CC5CCN(c6ccc(N7CCC(=O)NC7=O)cc6)CC5)CC4)cn3)ncn2)c1F [Example 9, (R)-3-(tert-butyl)-N-(1-(4-(6-((5-(4-((1-(4-(2,4-dioxotetrahydropyrimidin-1(2H)-yl)phenyl)piperidin-4-yl)methyl)piperazin-1-yl)pyridin-2-yl)amino)pyrimidin-4-yl)-3-fluoro-2-methylphenyl)ethyl)-1,2,4-oxadiazole-5-carboxamide]	> 10000
1.21	Cc1cc(-c2cc(Nc3ccc(N4CCN(CC5CCN(c6ccc(N7CCC(=O)NC7=O)cc6)CC5)CC4)cn3)ncn2)ccc1[C@@H](C)NC(=O)c1nc(C2(C)CC2)no1 [Example 11, (R)—N-(1-(4-(6-((5-(4-((1-(4-(2,4-dioxotetrahydropyrimidin-1(2H)-yl)phenyl)piperidin-4-yl)methyl)piperazin-1-yl)pyridin-2-yl)amino)pyrimidin-4-yl)-2-methylphenyl)ethyl)-3-(1-methylcyclopropyl)-1,2,4-oxadiazole-5-carboxamide]	> 10000
